Assay results taken from patent US20030134859A1 (SANKYO COMPANY, LIMITED, priority 2000, published 2003).
Like-named read-outs stand apart in the source and are kept apart here.

Legend:
[1] = test system: TNF-α production; assay: Inhibitory activity against cytokine (TNF-α) production in LPS-stimulated RAW264.7 cells; format: cell-based, mouse; conditions: 1 μM test compound, LPS 10 ng/mL; for inhibition at 1 µM: Mus musculus
In short: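 Mouse RAW264.7 macrophages (5,000 cells/well) stimulated with 10 ng/mL LPS (final) and treated with test compound at 1 μM final for 15 h at 37 °C. Supernatant mouse TNF-α measured by ELISA; % inhibition = 100−(A−B)/(C−B)×100, using unstimulated and LPS-only controls.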

[2] = test system: leptin production; assay: Enhancing activity for leptin production in adipocytes (ELISA); format: cell-based, rat; conditions: leptin concentration as % of control group; for activity at 1 µM / activity at 0.001 µM / activity at 0.01 µM / activity at 0.1 µM: Rattus norvegicus, Adipocyte, read-out: Facilitating activity to produce leptin
In short: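 Collagenase-dispersed epididymal adipocytes from 6-week-old male Wistar Imamichi rats, cultured in DMEM/F-12 (1:1) with test compound at final 1 µM, 100 nM, 10 nM or 1 nM (0.1% DMSO) for 24 h at 37 °C, 5% CO2. Leptin in filtrate measured by ELISA; activity = treated/DMSO-control leptin × 100 (%).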

Row | Molecule | inhibition at 1 µM ([1]; RAW264.7, 15 h) [%] | activity at 0.1 µM ([2]; 24 h, 100 nm) [%] | activity at 1 µM ([2]; 24 h, 1 μM) [%] | other results
1 | O=C(Nc1ccc(-c2ccc([N+](=O)[O-])cc2)cc1)c1cc([N+](=O)[O-])ccc1Cl [Example 9, N-[4-(4-Nitrophenyl)phenyl)-(2-chloro-5-nitrophenyl)carboxamide] | – | – | – | inhibition at 1 µM ([1]; 15 hr): 34%
2 | O=C(Nc1ccc(OC(F)(F)F)cc1)c1cc([N+](=O)[O-])ccc1Cl [Example 18, N-(4-Trifluoromethyloxyphenyl)-(2-chloro-5-nitrophenyl)carboxamide] | 16.8 | – | – | –
3 | O=C(Nc1ccc([N+](=O)[O-])cc1)c1cc([N+](=O)[O-])ccc1Cl [Example 23, N-(4-Nitrophenyl)-(2-chloro-5-nitrophenyl)carboxamide] | – | – | – | activity at 1 µM ([2]; 1 μM, 24 hr): 110%; activity at 0.001 µM ([2]; 1 nm, 24 hr): 134%; activity at 0.01 µM ([2]; 10 nm, 24 hr): 138%; activity at 0.1 µM ([2]; 100 nm, 24 hr): 158%; inhibition at 1 µM ([1]; 15 hr): 24.4%
4 | O=C(Nc1ccc([N+](=O)[O-])cn1)c1cc([N+](=O)[O-])ccc1Cl [Example 24, N-(5-Nitropyridin-2-yl)-(2-chloro-5-nitrophenyl)carboxamide] | – | – | – | activity at 1 µM ([2]; 1 μM, 24 hr): 144%; activity at 0.001 µM ([2]; 1 nm, 24 hr): 112%; activity at 0.01 µM ([2]; 10 nm, 24 hr): 121%; activity at 0.1 µM ([2]; 100 nm, 24 hr): 143%; inhibition at 1 µM ([1]; 15 hr): 30.1%
5 | Cc1ccc(S(=O)(=O)Nc2ccc(NC(=O)c3cc([N+](=O)[O-])ccc3Cl)cc2)cc1 [Example 32, N-[4-(4-Methylbenzene)sulfonylaminophenyl]-(2-chloro-5-nitrophenyl)carboxamide] | – | – | – | Inhibitory Activity (%) against TNF-α production ([1]; 15 hr): 19.8%
6 | O=C(Nc1nc2ccc([N+](=O)[O-])cc2s1)c1cc([N+](=O)[O-])ccc1Cl [Example 34, N-(6-Nitrobenzothiazol-2-yl)-(2-chloro-5-nitrophenyl)carboxamide] | – | – | – | inhibition at 1 µM ([1]; 15 hr): 15.2%
7 | O=C(Nc1nc(-c2cccs2)cs1)c1cc([N+](=O)[O-])ccc1Cl [Example 36, N-[4-(2-Thienyl)thiazol-2-yl)-(2-chloro-5-nitrophenyl)carboxamide] | 18 | 120 | – | –
8 | O=C(Nc1nc(-c2ccc3ccccc3c2)cs1)c1cc([N+](=O)[O-])ccc1Cl [Example 42, N-[4-(2-Naphthyl)thiazol-2-yl)-(2-chloro-5-nitrophenyl)carboxamide] | 18.8 | – | 127 | –
9 | O=C(Nc1nc(-c2ccc(Cl)c(Cl)c2)cs1)c1cc([N+](=O)[O-])ccc1Cl [Example 43, N-[4-(3,4-Dichlorophenyl)thiazol-2-yl]-(2-chloro-5-nitrophenyl)carboxamide] | 17.7 | 112 | 111 | –
10 | O=C(Nc1cnc2ccccc2c1)c1cc([N+](=O)[O-])ccc1Cl [Example 55, N-(3-Quinolinyl)-(2-chloro-5-nitrophenyl)carboxamide] | 15.3 | 113 | – | activity at 0.001 µM ([2]; 24 h, 1 nm): 116%; activity at 0.01 µM ([2]; 24 h, 10 nm): 115%
11 | O=C(Nc1ccc(N2CCCCC2)cc1)c1cc([N+](=O)[O-])ccc1Cl [Example 114, N-[4-(Piperidin-1-yl)phenyl]-(2-chloro-5-nitrophenyl)carboxamide] | 16.8 | – | – | –
12 | O=C(Nc1ccc(-c2ccc(NC(=O)c3cc([N+](=O)[O-])ccc3Cl)cc2)cc1)c1ccncc1 [Example 126, N-[4-[4-(Pyridin-4-ylcarbonylamino)phenyl]phenyl]-(2-chloro-5-nitrophenyl)carboxamide] | – | 121 | 142 | activity at 0.01 µM ([2]; 24 h, 10 nm): 109%
13 | O=C(Nc1ccc(NS(=O)(=O)c2ccccc2)cc1)c1cc([N+](=O)[O-])ccc1Cl [Example 127, N-(4-Benzenesulfonylaminophenyl)-(2-chloro-5-nitrophenyl)carboxamide] | – | – | 115 | –
14 | CCS(=O)(=O)Nc1ccc(-c2ccc(NC(=O)c3cc([N+](=O)[O-])ccc3Cl)cc2)cc1 [Example 130, N-[4-(4-Ethanesulfonylaminophenyl)phenyl]-(2-chloro-5-nitrophenyl)carboxamide] | – | 123 | 116 | –
15 | O=C(Nc1cnccn1)c1cc([N+](=O)[O-])ccc1Cl [Example 140, N-(Pyrazin-2-yl)-(2-chloro-5-nitrophenyl)carboxamide] | – | 114 | – | –
16 | Cc1ccc2nc(NC(=O)c3cc([N+](=O)[O-])ccc3Cl)sc2c1 [Example 141, N-(6-Methybenzothiazol-2-yl)-(2-chloro-5-nitrophenyl)carboxamide] | – | – | – | Inhibitory Activity (%) against TNF-α production ([1]; 15 hr): 15.9%

Row | Molecule | inhibition at 1 µM ([1]; RAW264.7, 15 h) [%] | activity at 0.1 µM ([2]; 24 h, 100 nm) [%] | activity at 1 µM ([2]; 24 h, 1 μM) [%] | other results
17 | Cl.O=C(Nc1ccncc1)c1cc([N+](=O)[O-])ccc1Cl [Example 146, N-(Pyridin-4-yl)-(2-chloro-5-nitrophenyl)carboxamide Hydrochloride] | – | 138 | 126 | activity at 0.01 µM ([2]; 24 h, 10 nm): 112%
18 | CCc1ccc(S(=O)(=O)Nc2ccc(NC(=O)c3cc([N+](=O)[O-])ccc3Cl)cc2)cc1 [Example 150, N-[4-(4-Ethylbenzenesulfonylamino)phenyl]-(2-chloro-5-nitrophenyl)carboxamide] | 16.2 | – | – | –
19 | O=C(Nc1ccc(S(=O)(=O)N2CCCCC2)cc1)c1cc([N+](=O)[O-])ccc1Cl [Example 151, N-[4-(Piperidyisulfonyl)phenyl]-(2-chloro-5-nitrophenyl)carboxamide] | – | 113 | 113 | –
20 | O=C(Nc1ccc(S(=O)(=O)N2CCOCC2)cc1)c1cc([N+](=O)[O-])ccc1Cl [Example 153, N-[4-(Morpholin-4-ylsulfonyl)phenyl]-(2-chloro-5-nitrophenyl)carboxamide] | – | – | 113 | –
21 | CC(=O)c1ccc(NC(=O)c2cc([N+](=O)[O-])ccc2Cl)cc1 [Example 155, N-(4-Acetylphenyl)-(2-chloro-5-nitrophenyl)carboxamide] | – | 130 | 114 | –
22 | CC(=O)c1cccc(NC(=O)c2cc([N+](=O)[O-])ccc2Cl)c1 [Example 156, N-(3-Acetylphenyl)-(2-chloro-5-nitrophenyl)carboxamide] | – | 118 | 112 | –
23 | CC(C)(C)c1cc(NS(=O)(=O)c2cccc(NC(=O)c3cc([N+](=O)[O-])ccc3Cl)c2)cc(C(C)(C)C)c1O [Example 161, N-[3-[(3,5-di-tert-Butyl-4-hydroxyphenyl)aminosulfonyl]phenyl]-(2-chloro-5-nitrophenyl)carboxamide] | – | – | 131 | –
24 | O=C(Nc1ccc(-n2ccnc2)cc1)c1cc([N+](=O)[O-])ccc1Cl [Example 174, N-[4-(Imidazol-1-yl)phenyl]-(2-chloro-5-nitrophenyl)carboxamide] | – | 127 | – | activity at 0.001 µM ([2]; 24 h, 1 nm): 118%; activity at 0.01 µM ([2]; 24 h, 10 nm): 123%
25 | CC(C)(C)c1cc(NS(=O)(=O)c2ccc(NC(=O)c3cc([N+](=O)[O-])ccc3Cl)cc2)cc(C(C)(C)C)c1O [Example 175, N-[4-[(3,5-di-tert-Butyl-4-hydroxyphenyl)aminosulfonyl]phenyl]-(2-chloro-5-nitrophenyl)carboxamide] | 15.7 | – | – | –
26 | O=C(Nc1ccc(-c2ccc(N3CCCCC3)cc2)cc1)c1cc([N+](=O)[O-])ccc1Cl [Example 177, N-[4-[4-(Piperidin-1-yl)phenyl]phenyl]-(2-chloro-5-nitrophenyl)carboxamide] | – | 134 | 145 | activity at 0.01 µM ([2]; 24 h, 10 nm): 121%
27 | CC(C)(C)OC(=O)Nc1ccc(-c2csc(NC(=O)c3cc([N+](=O)[O-])ccc3Cl)n2)cc1 [Example 190, N-[4-(4-tert-Butoxycarbonylaminophenyl)thiazol-2-yl]-(2-chloro-5-nitrophenyl)carboxamide] | 33.8 | – | – | –
28 | CCCN(CCC)c1ccc(-c2ccc(NC(=O)c3cc([N+](=O)[O-])ccc3Cl)cc2)cc1 [Example 194, N-[4-[4-(N,N-Dipropylamino)phenyl]phenyl]-(2-chloro-5-nitrophenyl)carboxamide] | 18.4 | – | – | –
29 | CCN(C)c1ccc(-c2ccc(NC(=O)c3cc([N+](=O)[O-])ccc3Cl)cc2)cc1 [Example 218, N-[4-[4-(N-Ethyl-N-methylamino)phenyl]phenyl]-(2-chloro-5-nitrophenyl)carboxamide] | 20.3 | – | – | –
30 | N-[3-(Pyrrolidinylsulfonyl)phenyl]-(2-chloro-5-nitrophenyl)carboxamide [Example 154] | – | – | – | Facilitating activity to produce leptin ([2]; 1 μM, 24 hr): 116.9%; Facilitating activity to produce leptin ([2]; 100 nm, 24 hr): 109.5%
31 | N-[4-(4-Methylbenzoylamino)phenyl]phenyl]-(2-chloro-5-nitrophenyl)carboxamide [Example 122] | – | – | – | Facilitating activity to produce leptin ([2]; 1 μM, 24 hr): 128.5%; Facilitating activity to produce leptin ([2]; 100 nm, 24 hr): 128.5%
32 | N-[4-[4-(Pyrrolidin-1-ylamino)phenyl]phenyl]-(2-chloro-5-nitrophenyl)carboxamide [Example 171] | – | – | – | Facilitating activity to produce leptin ([2]; 1 μM, 24 hr): 126.7%; Facilitating activity to produce leptin ([2]; 1 nm, 24 hr): 113.2%; Facilitating activity to produce leptin ([2]; 10 nm, 24 hr): 115.4%; Facilitating activity to produce leptin ([2]; 100 nm, 24 hr): 128.1%
